Here are results for five compounds from patent publication US20240067693A1, “POLYPEPTIDES AND USES THEREOF” (MEDIMMUNE LIMITED, priority 2020, published 2024).

For orientation: EC50 means the concentration needed to bring the measured effect to its halfway point.

For test [1], the target named is T1, human amylin receptor (calcitonin receptor co-expressed with receptor activity modifying protein, RAMP3) (hAMYR3) (Homo sapiens, UniProt O60896+P30988).
T1 construct: expressed in transfected cells
T1 sequence (P30988 25-474): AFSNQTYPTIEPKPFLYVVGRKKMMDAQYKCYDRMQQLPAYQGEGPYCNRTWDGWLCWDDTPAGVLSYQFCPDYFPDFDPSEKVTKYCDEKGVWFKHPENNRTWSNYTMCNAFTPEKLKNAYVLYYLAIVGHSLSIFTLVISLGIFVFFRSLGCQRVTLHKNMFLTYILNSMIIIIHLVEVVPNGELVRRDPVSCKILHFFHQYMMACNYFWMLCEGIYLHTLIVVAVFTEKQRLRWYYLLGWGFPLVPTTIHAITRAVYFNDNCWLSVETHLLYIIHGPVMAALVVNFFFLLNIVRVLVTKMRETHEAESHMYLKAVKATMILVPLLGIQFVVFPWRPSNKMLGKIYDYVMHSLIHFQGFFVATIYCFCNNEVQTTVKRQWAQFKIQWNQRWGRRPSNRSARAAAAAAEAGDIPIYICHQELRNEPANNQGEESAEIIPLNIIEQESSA
T1 sequence (O60896 24-148 partner): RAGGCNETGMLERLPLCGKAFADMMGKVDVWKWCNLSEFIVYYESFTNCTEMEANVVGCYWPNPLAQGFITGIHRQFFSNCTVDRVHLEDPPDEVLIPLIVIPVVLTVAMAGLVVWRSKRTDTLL
The test is described as follows: cAMP production in 1321N1 cells with stable recombinant expression of human amylin receptor (hAMYR3). The following applies: for Ratio (selectivity hAMYR vs hCTR, ratio of EC50 values at the two receptors): EC50 hCTR / EC50 hAMYR3; for EC50: cAMP, 1321N1 cells, assay buffer with 0.1% BSA, read-out: EC50 (pM) hAMYR3. The class given is cell-based. On the procedure: (§1) The functional activities of lipidated pramlintide analogue peptides, such as cAMP production, were tested in 1321N1 cell line with stable recombinant expression of human calcitonin receptor (hCTR) or human amylin receptor (calcitonin receptor co-expressed with receptor activity modifying protein, RAMP3) (hAMYR3) or HEK cells with stable recombinant expression of rat calcitonin receptor (rat CTR) or rat amylin receptor (calcitonin receptor co-expressed with receptor activity modifying protein, RAMP3) (Rat AMYR3).
(§2) Cryopreserved cell stock was thawed rapidly in a water-bath, suspended in assay buffer (0.1% BSA (Sigma # A3059) in HBSS (Sigma # H8264) with 25 mM HEPES, pH 7.4 and containing 0.5 mM IB MX (Sigma# 17018)) and spun at 240×g for 5 minutes. Cells were re-suspended in assay buffer at a batch-dependent optimized concentration (e.g. hCTR cells at 0.125×10^5 cells/mL, hAMYR3 cells at 0.125×10^5 cells/mL, rat CTR cells at 1x10^5 cells/mL, rat AMYR3 at 2×10^5 cells/mL).
(§3) The test peptide stock was prepared in DMSO and diluted in assay buffer to reach stated concentrations and transferred in duplicates into a 384-black shallow well microtitre assay plate (Corning # 3676). Cells were added to the assay plate, incubated at room temperature for 30 minutes and the cAMP level measured using cAMP dynamic 2 HTRF kit (Cisbio, Cat # 62AM4PEJ), following the two step protocol as per manufacturer's recommendations. The plates were read on an Envision (Perkin Elmer) using excitation wavelength of 320 nm and emission wavelengths of 620nm & 665 nm.
(§4) Data was transformed to % Delta F as described in the manufacturer's guidelines and analyzed as percent activation of maximal amylin or calcitonin effect by 4-parameter logistic fit to determine EC50 values. The selectivity of a peptide to hAMYR vs hCTR is defined as a ratio of EC50 values at the two receptors.
(cAMP levels reflect the balance of adenylyl cyclase and phosphodiesterase activity.)

In test [2] the target is T2, human calcitonin receptor (hCTR) (Homo sapiens, UniProt P30988).
T2 construct: expressed in transfected cells
T2 sequence (P30988 25-474): T1 sequence (P30988 25-474)
As to the kind of experiment: cAMP production in 1321N1 cells with stable recombinant expression of human calcitonin receptor (hCTR). The test is classed as cell-based. The following applies: cAMP, 1321N1 cells, assay buffer with 0.1% BSA; read-out: EC50 (pM) hCTR. On the procedure:
as §1, §2, §3, §4

Numbered stars: 1 amine (or outer) side, 2 acyl side, 3 side chain; on linkers, the order of the positions; unused ones are H or OH. Bridge positions count the residues as written; N and C are the ends. Square brackets hold non-standard residues; d marks the D form. Side chains are listed from the residue outwards. Peptide text beside a SMILES is read from it. * marks the point of attachment. C20 diacid = O=C(O)CCCCCCCCCCCCCCCCCCC(=O)*; C18 diacid = O=C(O)CCCCCCCCCCCCCCCCC(=O)*; γGlu = O=C(O)[C@H](CCC(=O)[*:2])N[*:1]; αMeF = C[C@](N)(Cc1ccccc1)C(=O)O; Aib = CC(C)(N)C(=O)O

`CC[C@H](C)[C@H](NC(=O)[C@@H]1CCCN1C(=O)CNC(=O)[C@H](Cc1ccccc1)NC(=O)[C@H](CC(N)=O)NC(=O)C(C)(C)NC(=O)[C@H](CO)NC(=O)[C@H](CO)NC(=O)[C@H](Cc1c[nH]cn1)NC(=O)C(C)(C)NC(=O)[C@H](CC(C)C)NC(=O)[C@H](Cc1ccccc1)NC(=O)[C@H](CC(N)=O)NC(=O)[C@H](C)NC(=O)[C@H](CC(C)C)NC(=O)[C@H](CCCNC(=N)N)NC(=O)[C@H](CCC(N)=O)NC(=O)[C@@H](NC(=O)[C@H](C)NC(=O)[C@@H]1CSSC[C@H](NC(=O)[C@H](CCCCN)NC(=O)[C@@H](N)CCCCNC(=O)CC[C@H](NC(=O)CCCCCCCCCCCCCCCCC(=O)O)C(=O)O)C(=O)N[C@@H](CC(N)=O)C(=O)N[C@@H]([C@@H](C)O)C(=O)N[C@@H](C)C(=O)N[C@@H]([C@@H](C)O)C(=O)N1)[C@@H](C)O)C(=O)N[C@@H](CC(C)C)C(=O)N1CCC[C@H]1C(=O)N1CCC[C@H]1C(=O)N[C@H](C(=O)N[C@@H](CC(N)=O)C(=O)N[C@H](C(=O)NCC(=O)N[C@@H](CO)C(=O)N[C@@H](CC(N)=O)C(=O)N[C@H](C(=O)N1CCC[C@H]1C(N)=O)[C@@H](C)O)C(C)C)[C@@H](C)O` [Peptide 87, K(γE-C18diacid)K[CNTATC]ATQRLANFL(Aib)HSS(Aib)NFGPILPPTNVGSNTP-amide] (H-K([γGlu-C18 diacid])KCNTATCATQRLANFL[Aib]HSS[Aib]NFGPILPPTNVGSNTP-NH2; disulfide 3-8; N-terminus assumed): the “Ratio (selectivity hAMYR vs hCTR, ratio of EC50 values at the two receptors)” value in test [1] was 1. For the same compound, the EC50 in test [1] was determined as 71 pM; in test [2] it was 74 pM. Regarding `CC[C@H](C)[C@H](NC(=O)[C@H](C)NC(=O)[C@@H]1CCCN1C(=O)[C@H](Cc1ccccc1)NC(=O)[C@H](CC(N)=O)NC(=O)[C@@H]1CCCN1C(=O)[C@H](CO)NC(=O)[C@H](CO)NC(=O)[C@H](Cc1c[nH]cn1)NC(=O)[C@@H](NC(=O)[C@H](CC(C)C)NC(=O)[C@H](Cc1ccccc1)NC(=O)[C@H](CC(N)=O)NC(=O)[C@H](C)NC(=O)[C@H](CC(C)C)NC(=O)[C@H](CCCNC(=N)N)NC(=O)[C@H](CCC(N)=O)NC(=O)[C@@H](NC(=O)[C@H](C)NC(=O)[C@@H]1CSSC[C@H](NC(=O)[C@@H](N)CCCCNC(=O)CC[C@H](NC(=O)CC[C@H](NC(=O)CCCCCCCCCCCCCCCCCCC(=O)O)C(=O)O)C(=O)O)C(=O)N[C@@H](CC(N)=O)C(=O)N[C@@H]([C@@H](C)O)C(=O)N[C@@H](C)C(=O)N[C@@H]([C@@H](C)O)C(=O)N1)[C@@H](C)O)C(C)C)C(=O)N[C@@H](CC(C)C)C(=O)N[C@@H](CO)C(=O)N1CCC[C@H]1C(=O)N[C@H](C(=O)N[C@@H](CC(N)=O)C(=O)N[C@H](C(=O)NCC(=O)N[C@@H](CO)C(=O)N[C@@H](CC(N)=O)C(=O)N[C@H](C(=O)N[C@@H](Cc1ccc(O)cc1)C(N)=O)[C@@H](C)O)C(C)C)[C@@H](C)O` [Peptide 115] (H-K([γGlu-γGlu-C20 diacid])CNTATCATQRLANFLVHSSPNFPAILSPTNVGSNTY-NH2; disulfide 2-7 (inferred)), the “Ratio (selectivity hAMYR vs hCTR, ratio of EC50 values at the two receptors)” value in test [1] was determined as 11. Still for that read-out and setting: the figure for `CC[C@H](C)[C@H](NC(=O)[C@@H]1CCCN1C(=O)CNC(=O)[C@H](Cc1ccccc1)NC(=O)[C@H](CC(N)=O)NC(=O)[C@H](CC(N)=O)NC(=O)[C@H](CO)NC(=O)[C@H](CO)NC(=O)[C@H](Cc1c[nH]cn1)NC(=O)[C@@H](NC(=O)[C@H](CC(C)C)NC(=O)[C@H](Cc1ccccc1)NC(=O)[C@H](CC(N)=O)NC(=O)[C@H](C)NC(=O)[C@H](CC(C)C)NC(=O)[C@H](CCCNC(=N)N)NC(=O)[C@H](CCC(N)=O)NC(=O)[C@@H](NC(=O)[C@H](C)NC(=O)[C@@H]1CSSC[C@H](NC(=O)[C@@H](N)CCCCNC(=O)CC[C@H](NC(=O)CC[C@H](NC(=O)CCCCCCCCCCCCCCCCCCC(=O)O)C(=O)O)C(=O)O)C(=O)N[C@@H](CC(N)=O)C(=O)N[C@@H]([C@@H](C)O)C(=O)N[C@@H](C)C(=O)N[C@@H]([C@@H](C)O)C(=O)N1)[C@@H](C)O)C(C)C)C(=O)N[C@@H](CC(C)C)C(=O)N1CCC[C@H]1C(=O)N1CCC[C@H]1C(=O)N[C@H](C(=O)N[C@@H](CC(N)=O)C(=O)N[C@H](C(=O)NCC(=O)N[C@@H](CO)C(=O)N[C@@H](CCCNC(=N)N)C(=O)N[C@H](C(=O)N[C@@H](Cc1ccc(O)cc1)C(N)=O)[C@@H](C)O)C(C)C)[C@@H](C)O` [Peptide 114] (H-K([γGlu-γGlu-C20 diacid])CNTATCATQRLANFLVHSSNNFGPILPPTNVGSRTY-NH2; disulfide 2-7 (inferred)) is 12; for `CC[C@H](C)[C@H](NC(=O)[C@H](C)NC(=O)[C@@H]1CCCN1C(=O)[C@H](Cc1ccccc1)NC(=O)[C@H](CC(N)=O)NC(=O)[C@@H]1CCCN1C(=O)[C@H](CO)NC(=O)[C@H](CO)NC(=O)[C@H](Cc1c[nH]cn1)NC(=O)[C@@H](NC(=O)[C@H](CC(C)C)NC(=O)[C@H](Cc1c[nH]c2ccccc12)NC(=O)[C@H](CC(N)=O)NC(=O)[C@H](C)NC(=O)[C@H](CC(C)C)NC(=O)[C@H](CCCNC(=N)N)NC(=O)[C@H](CCC(N)=O)NC(=O)[C@@H](NC(=O)[C@H](C)NC(=O)[C@@H]1CSSC[C@H](NC(=O)[C@@H](N)CCCCNC(=O)CC[C@H](NC(=O)CC[C@H](NC(=O)CCCCCCCCCCCCCCCCCCC(=O)O)C(=O)O)C(=O)O)C(=O)N[C@@H](CC(N)=O)C(=O)N[C@@H](C)C(=O)N[C@@H](C)C(=O)N[C@@H]([C@@H](C)O)C(=O)N1)[C@@H](C)O)C(C)C)C(=O)N[C@@H](CC(C)C)C(=O)N[C@@H](CO)C(=O)N1CCC[C@H]1C(=O)N[C@H](C(=O)N[C@@H](CC(N)=O)C(=O)N[C@H](C(=O)NCC(=O)N[C@@H](CO)C(=O)N[C@@H](CC(N)=O)C(=O)N[C@H](C(=O)N[C@@H](Cc1ccc(O)cc1)C(N)=O)[C@@H](C)O)C(C)C)[C@@H](C)O` [Peptide 120] (H-K([γGlu-γGlu-C20 diacid])CNAATCATQRLANWLVHSSPNFPAILSPTNVGSNTY-NH2; disulfide 2-7 (inferred)) it is 6. In the case of `CC[C@H](C)[C@H](NC(=O)[C@@H]1CCCN1C(=O)CNC(=O)[C@](C)(Cc1ccccc1)NC(=O)[C@H](CC(N)=O)NC(=O)[C@H](CC(N)=O)NC(=O)[C@H](CO)NC(=O)[C@H](CO)NC(=O)[C@H](Cc1c[nH]cn1)NC(=O)[C@H](CCCNC(=N)N)NC(=O)[C@H](CC(C)C)NC(=O)[C@H](Cc1ccccc1)NC(=O)[C@H](CC(N)=O)NC(=O)[C@H](C)NC(=O)[C@H](CC(C)C)NC(=O)[C@H](CCCNC(=N)N)NC(=O)[C@H](CCC(N)=O)NC(=O)[C@@H](NC(=O)[C@H](C)NC(=O)[C@@H]1CSSC[C@H](NC(=O)[C@@H](N)CCCCNC(=O)CC[C@H](NC(=O)CCCCCCCCCCCCCCCCC(=O)O)C(=O)O)C(=O)N[C@@H](CC(N)=O)C(=O)N[C@@H]([C@@H](C)O)C(=O)N[C@@H](C)C(=O)N[C@@H]([C@@H](C)O)C(=O)N1)[C@@H](C)O)C(=O)N[C@@H](CC(C)C)C(=O)N1CCC[C@H]1C(=O)N1CCC[C@H]1C(=O)N[C@H](C(=O)N[C@@H](CCC(=O)O)C(=O)N[C@H](C(=O)NCC(=O)N[C@@H](CO)C(=O)N[C@@H](CC(N)=O)C(=O)N[C@H](C(=O)N[C@@H](Cc1ccc(O)cc1)C(N)=O)[C@@H](C)O)C(C)C)[C@@H](C)O` [Peptide 16, K(γE-C18diacid)[CNTATC]ATQRLANFLRHSSNN(αMePhe)GPILPPTEVGSNTY-amide] (H-K([γGlu-C18 diacid])CNTATCATQRLANFLRHSSNN[αMeF]GPILPPTEVGSNTY-NH2; disulfide 2-7; N-terminus assumed), in test [1], the “Ratio (selectivity hAMYR vs hCTR, ratio of EC50 values at the two receptors)” value stood at 9 and the EC50 amounted to 221 pM.
